ChEMBL document CHEMBL1909623, “Synthesis and preliminary evaluation of amiloride analogs as inhibitors of the urokinase-type plasminogen activator (uPA)” (Bioorg Med Chem Lett, 2011)

Experiments:
[1] = target: Sodium/hydrogen exchanger 1 (Homo sapiens) (UniProt P19634); assay: Inhibition of NHE1
[2] = target: T1, Urokinase-type plasminogen activator (Homo sapiens, UniProt P00749); assay: Inhibition of urokinase-type plasminogen activator
[3] = target: Sodium/hydrogen exchanger 1 (Homo sapiens) (UniProt P19634); assay: Ratio of compound K0.5 to amiloride K0.5 for NHE1
[4] = target: T1, Urokinase-type plasminogen activator; assay: Ratio of compound K0.5 to amiloride K0.5 for urokinase-type plasminogen activator

Chain of Sodium/hydrogen exchanger 1 (Homo sapiens) (P19634 whole entry): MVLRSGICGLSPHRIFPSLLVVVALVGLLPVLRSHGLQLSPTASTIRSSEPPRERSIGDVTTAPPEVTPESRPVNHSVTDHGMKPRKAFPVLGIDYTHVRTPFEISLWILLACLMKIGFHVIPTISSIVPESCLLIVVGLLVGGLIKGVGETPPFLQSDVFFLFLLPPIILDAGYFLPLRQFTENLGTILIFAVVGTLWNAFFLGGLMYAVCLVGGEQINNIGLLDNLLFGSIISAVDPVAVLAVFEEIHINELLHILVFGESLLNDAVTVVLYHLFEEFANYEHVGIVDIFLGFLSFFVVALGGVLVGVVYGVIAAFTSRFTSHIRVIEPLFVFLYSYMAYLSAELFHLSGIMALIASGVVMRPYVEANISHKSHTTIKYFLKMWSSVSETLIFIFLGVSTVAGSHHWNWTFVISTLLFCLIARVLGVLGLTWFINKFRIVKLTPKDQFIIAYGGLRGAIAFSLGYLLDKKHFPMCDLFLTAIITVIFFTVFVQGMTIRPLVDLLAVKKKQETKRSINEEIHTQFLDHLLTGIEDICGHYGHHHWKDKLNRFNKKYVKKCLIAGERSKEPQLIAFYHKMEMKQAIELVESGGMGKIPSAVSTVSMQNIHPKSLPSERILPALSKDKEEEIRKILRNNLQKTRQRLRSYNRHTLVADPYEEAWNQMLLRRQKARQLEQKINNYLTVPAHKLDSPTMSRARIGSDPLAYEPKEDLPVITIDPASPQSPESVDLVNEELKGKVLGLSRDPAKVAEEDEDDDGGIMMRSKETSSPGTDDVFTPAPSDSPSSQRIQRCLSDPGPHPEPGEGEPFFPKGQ

Structure (SMILES) | IC50 [2] | further results
N=C(N)NC(=O)c1nc(Cl)c(N)nc1N |  | K0.5 [1]: 7 µM
N=C(N)NC(=O)c1nc(Cl)cnc1N | > 1000 µM | 
N=C(N)NC(=O)c1nc(Br)c(N)nc1N | 5 µM | 
COc1cc(N)c(Cl)cc1C(=O)NC(=N)N | 222 µM | 
N=C(N)NC(=O)c1nc(Br)c(N2CCCCCC2)nc1N |  | Ratio [3]: 566
N=C(N)NC(=O)c1nc(I)c(N)nc1N | 2 µM | 
CCOP(=O)(O)CCNc1nc(N)c(C(=O)NC(=N)N)nc1Cl | > 1000 µM | 
N=C(N)NC(=O)c1nc(Cl)c(NCCSCc2ccccc2)nc1N | 21 µM | 
CCOP(=O)(NNc1nc(N)c(C(=O)NC(=N)N)nc1Cl)OCC | 10 µM | 
NNC(=O)c1nc(Cl)c(N)nc1N | > 1000 µM | 
N=C(N)NC(=O)c1nc(Cl)c(NCCS(=O)(=O)O)nc1N | > 1000 µM | 
N=C(N)NC(=O)c1nc(Cl)c(NCc2ccc(F)cc2)nc1N | 6 µM | 
N=C(N)NC(=O)c1nc(Cl)c(NCCc2ccccc2)nc1N | 16 µM | 
N=C(N)NC(=O)c1cnc(N)c(Br)n1 | > 1000 µM | 
CN(CCNc1nc(N)c(C(=O)NC(=N)N)nc1Cl)Cc1ccccc1 | 15 µM | 
CCOC(=O)CCNc1nc(N)c(C(=O)NC(=N)N)nc1Cl | 25 µM | 
N=C(N)NC(=O)c1nc(Cl)c(NCc2nnn[nH]2)nc1N | 177 µM | 
CCOP(=O)(CCNc1nc(N)c(C(=O)NC(=N)N)nc1Cl)OCC | 44 µM | 
N=C(N)NC(=O)c1nc(Cl)c(NCc2ccccn2)nc1N | 38 µM | 
N=C(N)NC(=O)c1nc(C#Cc2ccccc2)c(N)nc1N | 2 µM | 
Nc1noc(-c2nc(Cl)c(N)nc2N)n1 | > 1000 µM | 
N=C(N)NC(=O)c1nc(Cl)c(NCc2ccccc2)nc1N | 8 µM | 
CCN(CC)CCNc1nc(N)c(C(=O)NC(=N)N)nc1Cl | 14 µM | 
N=C(N)NC(=O)c1ccccn1 [AMINO(PICOLINAMIDO)METHANIMINIUM CHLORIDE] | > 1000 µM | 
Cc1ccc(S(=O)(=O)NCCNc2nc(N)c(C(=O)NC(=N)N)nc2Cl)cc1 | 35 µM | 
CCOP(=O)(CNc1nc(N)c(C(=O)NC(=N)N)nc1Cl)OCC | 37 µM | 

Structure (SMILES) | IC50 [2] | further results
N#CCNc1nc(N)c(C(=O)NC(=N)N)nc1Cl | 50 µM | 
N=C(N)NC(=O)c1nc(Cl)c(NCCc2nnn[nH]2)nc1N | 61 µM | 
N#CCCNc1nc(N)c(C(=O)NC(=N)N)nc1Cl | 16 µM | 
CCN(c1nc(N)c(C(=O)NC(=N)N)nc1I)C(C)C |  | Ratio [3]: 313
CCN(c1nc(N)c(C(=O)NC(=N)N)nc1Cl)C(C)C | 6 µM | Ratio [3]: 140; Ratio IC50 [4]: 2
N=C(N)NC(=O)c1nc(-c2ccccc2)c(N)nc1N | 10 µM | 
N=C(N)NC(=O)c1nc(Cl)c(NCCNCc2ccccc2)nc1N | 28 µM | 
N=C(N)NC(=O)c1c[nH]cn1 | > 1000 µM | 
N=C(N)NC(=O)c1nc(Cl)c(N2CCCCCC2)nc1N | 6 µM | Ratio [3]: 524; Ratio IC50 [4]: 2
N=C(N)NC(=O)c1cccnc1 [AMINO(NICOTINAMIDO)METHANIMINIUM CHLORIDE] | > 1000 µM | 
N=C(N)NC(=O)c1cnc(Cl)c(Cl)c1 | > 1000 µM | 
N=C(N)NC(=O)c1ncc(NCCc2ccccc2)nc1N | 120 µM | 
N=C(N)NC(=O)c1nc(Cl)c(NCP(=O)(O)O)nc1N | > 1000 µM | 
N=C(N)NC(=O)c1nc(Cl)c(NCCS(=O)(=O)Cc2ccccc2)nc1N | 15 µM | 
N=C(N)NC(=O)c1ncc(NCc2ccccc2)nc1N | 43 µM | 
N=C(N)NC(=O)c1nc(Cl)c(NCc2cccnc2)nc1N | 17 µM | 
N=C(N)NC(=O)c1nc(Cl)c(NCc2ccncc2)nc1N | 6 µM | 
N=C(N)NC(=O)c1nc(Cl)c(NCCC(=O)O)nc1N | 102 µM | 
N=C(N)NC(=O)c1nc(Cl)c(NCC(=O)O)nc1N | 110 µM | 
N=C(N)NC(=O)c1ccccc1 [AMINO(BENZAMIDO)METHANIMINIUM CHLORIDE] | > 1000 µM | 
N=C(N)NC(=O)c1nc(Cl)c(NCC[n+]2ccccc2)nc1N | 30 µM | 
N=C(N)NC(=O)c1cnccn1 | > 1000 µM | 
N=C(N)NC(=O)c1nc(Cl)c(NCCP(=O)(O)O)nc1N | > 1000 µM | 
COC(=O)CNc1nc(N)c(C(=O)NC(=N)N)nc1Cl | 26 µM | 
N=C(N)NC(=O)c1ncc(N)nc1N | 19 µM | 
